This passage reports inhibition and Ki results from patent publication US5935973A, “Heterocyclcarboxamide derivatives and their use as therapeutic agents” (Knoll Aktiengesellschaft, priority 1995, dated 1999).

For assay [1], the target named is T1, α2D-adrenoceptors (Rattus norvegicus, UniProt P22909).
T1 construct: Frontal cortical tissue from the brains of male Charles River CD rats; from tissue; host or cells: rat frontal cortex membranes
T1 sequence (P22909 1-465): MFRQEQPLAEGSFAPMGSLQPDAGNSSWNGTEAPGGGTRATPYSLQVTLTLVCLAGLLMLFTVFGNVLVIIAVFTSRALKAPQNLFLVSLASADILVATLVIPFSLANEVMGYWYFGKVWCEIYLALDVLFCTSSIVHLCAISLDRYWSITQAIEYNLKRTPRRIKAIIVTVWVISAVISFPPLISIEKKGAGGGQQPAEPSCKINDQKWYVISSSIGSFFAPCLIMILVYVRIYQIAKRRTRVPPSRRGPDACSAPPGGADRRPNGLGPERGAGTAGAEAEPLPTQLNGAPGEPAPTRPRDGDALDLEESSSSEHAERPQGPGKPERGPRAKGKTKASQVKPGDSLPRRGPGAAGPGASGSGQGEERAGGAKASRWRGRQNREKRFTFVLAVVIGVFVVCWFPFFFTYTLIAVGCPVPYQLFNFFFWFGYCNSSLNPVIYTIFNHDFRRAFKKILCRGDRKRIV
As to the kind of experiment: inhibition of tritiated idazoxan binding to α2D-adrenoceptors in rat frontal cortical tissue. Particulars: rat frontal cortex; for inhibition at 1 µM: at 10^-6 M, tritiated idazoxan, read-out: % displacement of radio ligand, α2D; for Ki: tritiated idazoxan 1 nM, 0° C., 75 min. The method, then: Frontal cortical tissue from the brains of male Charles River CD rats weighing between 150-250 g were homogenised in ice-cold 0.25 M sucrose (1:30 w/v) and centrifuged at 1,000 g at 4° C. for 12 minutes. The supernatant was stored on ice and the pellet was rehomogenised in 0.25 M sucrose (1:15 w/v) and centrifuged at 850 g at 4° C. for 12 minutes. Combined supernatants were diluted with 5 mM Tris-HCl (pH 7.5) containing 5 mM ethylenediamine tetraacetic acid (EDTA) readjusted to pH 7.5 (at 25° C.) with 1 M sodium hydroxide to 1:80 w/v, and centrifuged at 30,000 g at 4° C. for 10 minutes. The resulting pellet was resuspended in 50 mM Tris-HCl (pH 7.5) containing 5.68 mM L-ascorbic acid and 0.5 mM EDTA readjusted to pH 7.5 (at 25° C.) with 1 M sodium hydroxide, and centrifuged at 30,000 g for 10 minutes. The final pellet was resuspended in 50 mM Tris-HCl (pH 7.5) containing 5.68 mM L-ascorbic acid and 5 mM EDTA (equivalent to 12.5 mg wet weight of tissue/ml) and used immediately in the binding assay. Aliquots (400 μl; equivalent to 5 mg wet weight of tissue/tube) of this suspension were added to tubes containing the ligand (50 μl; 1 nM) and distilled water (50 μl; total binding) or phentolamine (50 μl; 5 μM; non-specificbinding) or test compound (50 μl; at a single concentration of 10^-6 M or at 10 concentrations ranging from 10^-11 -10^-3 M). The ligand was tritiated idazoxan ((1,4-[6,7(n)-^3 H]benzodioxan-2-yl)-2-imidazoline hydrochloride) and the mixture was incubated at 0° C. for 75 minutes before the incubation was terminated by rapid filtration.
The filters were washed with ice-cold Tris-HCl buffer and dried. The filters were punched out into vials, scintillation fluid added and radioactivity determined by liquid scintillation counting. […] Displacement curves were then produced for those compounds which displaced ≥50% of specific binding of the tritiated ligand at 10^-6 M using a range of concentrations of the compound. The concentration which gave 50% inhibition of specific binding (IC50) was obtained from the curve. The inhibition coefficient Ki was then calculated using the formula [formula] in which [ligand] is the concentration of the tritiated ligand used and KD is the equilibrium dissociation constant for the ligand.

Assay [2] deals with T2, D2 dopamine receptors (Rattus norvegicus, UniProt P61169).
T2 construct: Striatal tissue from the brains of male Charles River CD rats; from tissue; host or cells: rat striatum membranes
T2 sequence (P61169 whole entry): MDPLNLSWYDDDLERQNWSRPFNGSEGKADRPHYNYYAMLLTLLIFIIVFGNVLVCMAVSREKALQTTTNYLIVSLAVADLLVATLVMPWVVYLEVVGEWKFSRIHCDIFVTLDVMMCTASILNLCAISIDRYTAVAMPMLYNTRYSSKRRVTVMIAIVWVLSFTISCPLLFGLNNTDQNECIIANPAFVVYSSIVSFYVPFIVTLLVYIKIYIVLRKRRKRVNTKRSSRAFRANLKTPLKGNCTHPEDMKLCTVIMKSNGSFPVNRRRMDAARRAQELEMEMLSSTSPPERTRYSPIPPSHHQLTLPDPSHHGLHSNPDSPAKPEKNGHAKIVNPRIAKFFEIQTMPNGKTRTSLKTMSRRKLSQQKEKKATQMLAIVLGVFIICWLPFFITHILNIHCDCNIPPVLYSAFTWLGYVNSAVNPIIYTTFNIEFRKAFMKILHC
As to the kind of experiment: inhibition of tritiated (S)-sulpiride binding to D2 dopamine receptors in rat striatal tissue. The following applies: rat striatum; for Ki: tritiated (S)-sulpiride 1 nM, 4° C., 40 min; for inhibition at 1 µM: at 10^-6 M, tritiated (S)-sulpiride, read-out: % displacement of radio ligand, D2.

The term Ki denotes a measure of affinity in units of concentration, obtained from inhibition or displacement. High values mean lower affinity, low ones higher affinity. Regarding `Nc1ncccc1C(=O)NCC1CCN(C[C@H]2COc3ccc(Cl)cc3O2)CC1` [Example 1, (S)-(-)-2-amino-N-{[1-(7-chloro-1,4-benzodioxan-2-ylmethyl)-4-piperidyl]methyl}pyridine-3-carboxamide], the inhibition at 1 µM in assay [1] is 97%. The molecule further returned a Ki in assay [2] of 32.2 nM.
As for `Nc1ncccc1C(=O)NCC1CCN(C[C@H]2COc3cccc(Cl)c3O2)CC1` [Example 2, (S)-2-amino-N-{[1-(8-chloro-1,4-benzodioxan-2-ylmethyl)-4-piperidyl]methyl}-pyridine-3-carboxamide], the results for the inhibition at 1 µM in assay [1] and in assay [2] were 98% and 104%, respectively.
In the case of `Nc1ncccc1C(=O)NCC1CCN(C[C@H]2COc3cccc(F)c3O2)CC1` [Example 3, (S)-(-)-2-amino-N-{[1-(8-fluoro-1,4-benzodioxan-2-ylmethyl)-4-piperidyl]methyl}pyridine-3-carboxamide], the inhibition at 1 µM in assay [1] worked out at 99%. Moreover, affinity in assay [2] was put at a Ki of 32.9 nM.
`Nc1ncccc1C(=O)NCC1CCN(CC2COc3ccccc3O2)CC1` (stereo not drawn) [Example 4, 2-amino-N-{[1-(1,4-benzodioxan-2-ylmethyl)-4-piperidyl]methyl}pyridine-3-carboxamide]: the inhibition at 1 µM in assay [1] amounted to 98%; in assay [2], 84%.
Regarding `Cc1ccc2c(c1)O[C@@H](CN1CCC(CNC(=O)c3cccnc3N)CC1)CO2` [Example 5, (S)-2-amino-N-{[1-(7-methyl-1,4-benzodioxan-2-ylmethyl)-4-piperidyl]methyl}pyridine-3-carboxamide], the inhibition at 1 µM in assay [1] was found to be 96%. Besides, the Ki in assay [2] is 55.6 nM.
Take `O=C(NCC1CCN(CC2COc3ccccc3O2)CC1)c1ccccn1` (stereo not drawn) [Example 6, N-{[1-(1,4-benzodioxan-2-ylmethyl)-4-piperidyl]methyl}pyridine-2-carboxamide]: the Ki came to 4.4 nM in assay [1] and 67 nM in assay [2].
Taken in the same sequence, the figures for `COc1ccc2c(c1)O[C@@H](CN1CCC(CNC(=O)c3cccnc3N)CC1)CO2` [Example 7, (S)-2-amino-N{[1-(7-methoxy-1,4-benzodioxan-2-ylmethyl)-4-piperidyl]methyl}-pyridine-3-carboxamide] were 3.6 nM and 197 nM.
Consider `O=C(NCC1CCN(CC2COc3ccccc3O2)CC1)c1cccc2cccnc12` (stereo not drawn) [Example 8, N-{[1-(1,4-benzodioxan-2-ylmethyl)-4-piperidyl]methyl}quinoline-8-carboxamide], for which the inhibition at 1 µM in assay [1] came out at 100%. In assay [2], this molecule yielded a Ki of 95 nM.
Taken in the same sequence, the figures for `Cc1ncccc1C(=O)NCC1CCN(C[C@H]2COc3cccc(Cl)c3O2)CC1` [Example 9, (S)-N-{[1-(8-chloro-1,4-benzodioxan-2-ylmethyl)-4-piperidyl]methyl}-2-methylpyridine-3-carboxamide] were 97% and 37 nM.
On to `Nc1ncccc1C(=O)NCC1CCN(CC2COc3ccc(F)cc3O2)CC1` (stereo not drawn) [Example 10, 2-amino-N-{[1-(7-fluoro-1,4-benzodioxan-2-ylmethyl)-4-piperidyl]methyl}pyridine-3-carboxamide], for which the values for the Ki in assay [1] and in assay [2] were 6.4 nM and 109 nM, respectively.
With `COc1cccc2c1OC(CN1CCC(CNC(=O)c3cccnc3N)CC1)CO2` (stereo not drawn) [Example 11, 2-amino-N-{[1-(8-methoxy-1,4-benzodioxan-2-ylmethyl)-4-piperidyl]methyl}pyridine-3-carboxamide], the inhibition at 1 µM in assay [1] turned out to be 98%. This molecule had a Ki in assay [2] of 41 nM.
Taken in the same sequence, the figures for `O=C(NCC1CCN(C[C@H]2COc3ccc(Cl)cc3O2)CC1)c1ccccn1` [Example 12, (S)-N-{[1-(7-chloro-1,4-benzodioxan-2-ylmethyl)-4-piperidyl]methyl}pyridine-2-carboxamide] were 95% and 21 nM.
For the molecule `Cc1cccc2c1O[C@@H](CN1CCC(CNC(=O)c3cccnc3N)CC1)CO2` [Example 13, (S)-2-amino-N-{[1-(8-methyl-1,4-benzodioxan-2-ylmethyl)-4-piperidyl]methyl}pyridine-3-carboxamide], the inhibition at 1 µM in assay [1] is 99%. Besides, the affinity in assay [2] corresponds to a Ki of 33 nM.
On the same counts, the results for `Cc1ccc(C(=O)NCC2CCN(C[C@H]3COc4ccc(Cl)cc4O3)CC2)c(N)n1` [Example 14, (S)-2-amino-N-{[1-(7-chloro-1,4-benzodioxan-2-ylmethyl)-4-piperidyl]methyl}-6-methylpyridine-3-carboxamide] are 97% and 43.9 nM.
Taken in the same sequence, the figures for `Nc1ncccc1C(=O)NCC1CCN(C[C@H]2COc3ccccc3O2)CC1` [Example 15, (S)-2-amino-N-{[1-(1,4-benzodioxan-2-ylmethyl)-4-piperidyl]methyl}pyridine-3-carboxamide] were 99% and 64.6 nM.
On the same counts, the results for `Nc1ccsc1C(=O)NCC1CCN(CC2COc3ccccc3O2)CC1` (stereo not drawn) [Example 16, 3-amino-N-{[1-(1,4-benzodioxan-2-ylmethyl)-4-piperidyl]methyl}thiophene-2-carboxamide] are 99% and 68 nM.
Regarding `Nc1ccsc1C(=O)NCC1CCN(C[C@H]2COc3ccc(Cl)cc3O2)CC1` [Example 17, (S)-3-amino-N-{[1-(7-chloro-1,4-benzodioxan-2-ylmethyl)-4-piperidyl]methyl}thiophene-2-carboxamide], the Ki in assay [1] amounted to 27 nM; in assay [2], 36 nM.
`Cc1ncccc1C(=O)NCC1CCN(C[C@H]2COc3ccc(Cl)cc3O2)CC1` [Example 18, (S)-N-{[1-(7-chloro-1,4-benzodioxan-2-ylmethyl)-4-piperidyl]methyl}-2-methylpyridine-3-carboxamide]: the inhibition at 1 µM in assay [1] was determined as 89%. In addition, the affinity in assay [2], expressed as Ki, was 110 nM.
Take `Nc1ncccc1C(=O)NCC1CCN(C[C@H]2COc3cccc(C(F)(F)F)c3O2)CC1` [Example 20, (S)-2-amino-N-{[1-(8-trifluoromethyl-1,4-benzodioxan-2-ylmethyl)-4-piperidyl]methyl}pyridine-3-carboxamide]: the inhibition at 1 µM in assay [1] came out at 98%. The molecule further returned a Ki in assay [2] of 12 nM.
Taken in the same sequence, the figures for `O=C(NCC1CCN(C[C@H]2COc3ccc(Cl)cc3O2)CC1)c1cccnc1` [Example 22, (S)-N-{[1-(7-chloro-1,4-benzodioxan-2-ylmethyl)-4-piperidyl]methyl}pyridine-3-carboxamide] were 99% and 15 nM.
On the same counts, the results for `O=C(NCC1CCN(C[C@H]2COc3ccc(Cl)cc3O2)CC1)c1cccc2cccnc12` [Example 23, (S)-N-{[1-(7-chloro-1,4-benzodioxan-2-ylmethyl)-4-piperidyl]methyl}quinoline-8-carboxamide] are 95% and 80 nM.
